Publication PMC10303920, “Competition between skin antimicrobial peptides and commensal bacteria in type 2 inflammation enables survival of S. aureus” (Cell reports, 2023)

Key:
S. hominis C6 strain = assay: Synergistic antimicrobial assay between LL-37 and Pep-5; format: cell-based, Staphylococcus hominis; conditions: strain lacking antimicrobial activity; 90% RPMI/10% TSB, 30°C, 24 h; Figure S9
Description: ShA9 or S. epidermidis A11 strains, lantibiotic producing CoNS, were cultured in TSB at 37°C with shake overnight. Bacteria were removed by centrifugation, followed by sterile filtration with 0.22μm membrane. Lantibiotics from each strain was precipitated by adding ammonium sulfate into the sterile conditioned media at 70% saturation. The ammonium sulfate precipitation of conditioned media were dissolved in 90% RPMI1640 supplemented by 10% TSB. ShA9-DLanti mutant or S. hominis C6 strain were cultured in TSB at 37°C overnight and washed with PBS. These strain was incubated with conditioned media precipitation (0–100%) along with […] of LL-37 in 90% RPMI/10% TSB at 30°C for 24 h. Concentration of conditioned media precipitation added was calculated based on the original volume of sterile conditioned media. Bacterial survival was evaluated by measuring OD600 or counting CFUs.

ShA9-ΔLanti = assay: Synergistic antimicrobial assay between LL-37 and ShA9 lantibiotics; format: cell-based, Staphylococcus hominis; conditions: sub-antimicrobial doses of LL-37 (4 or 8 μM) plus conditioned medium from ShA9-WT, 90% RPMI/10% TSB, 30°C, 24 h; Figure 5A
Description: ShA9 or S. epidermidis A11 strains, lantibiotic producing CoNS, were cultured in TSB at 37°C with shake overnight. Bacteria were removed by centrifugation, followed by sterile filtration with 0.22μm membrane. Lantibiotics from each strain was precipitated by adding ammonium sulfate into the sterile conditioned media at 70% saturation. The ammonium sulfate precipitation of conditioned media were dissolved in 90% RPMI1640 supplemented by 10% TSB. ShA9-DLanti mutant or S. hominis C6 strain were cultured in TSB at 37°C overnight and washed with PBS. These strain was incubated with conditioned media precipitation (0–100%) along with 0, 4, 8mM of LL-37 in 90% RPMI/10% TSB at 30°C for 24 h. Concentration of conditioned media precipitation added was calculated based on the original volume of sterile conditioned media. Bacterial survival was evaluated by measuring OD600 or counting CFUs.

[1] = tested on: CoNS-AM+ strains of S. epidermidis or S. hominis; assay: Bacterial survival on pigskin, antibiotic-producing CoNS; format: cell-based; conditions: LL-37 2.5 nmol on 2.5 × 2.5 cm pigskin sheet, 1 × 10^6 CFU, 30°C, 24 h; Figure 4F
Description: (§1) Fresh-frozen pigskin sheets were obtained from Loretta Tomlin Animal Technologies (Livermore, CA) and sanitized by surgical brush with 3% chloroxylenol. The skin sheet was cut into 2.5 cm × 2.5 cm and rinsed with sterile PBS more than 20 times to remove chloroxylenol residue. Synthetic LL-37 (2.5nanomol/50μL H2O) or equal volume of vehicle was applied to the surface of sanitized pig skin. Antibiotic-producing or non-antibiotic-producing strain of CoNS (1 × 10^6 CFU/10μL PBS) was applied on the pigskin. Pigskin sheet was placed on a 6-well plate and incubated at 30°C for 24 h. The entire skin sheet was rubbed 50 times with nylon foam swab (Puritan) pre-moisturized with PBS to collect bacteria on the skin surface. Swab sample was suspended in 1mL of 85% TSB/15% glycerol and frozen until analysis.

[2] = tested on: CoNS-AM− strains of S. epidermidis or S. hominis; assay: Bacterial survival on pigskin, non-antibiotic-producing CoNS; format: cell-based; conditions: LL-37 2.5 nmol on 2.5 × 2.5 cm pigskin sheet, 1 × 10^6 CFU, 30°C, 24 h; Figure 4F
Description: as §1

[3] = tested on: CoNS with antimicrobial activity within the microbial community of human skin swabs; assay: Effect of low dose LL-37 on mixed bacterial communities from healthy human forearm skin in vitro; format: cell-based, coagulase-negative Staphylococcus; conditions: skin swabs from forearms of 5 healthy subjects, media with a low dose of LL-37, 4 h; Figure 4H
Description: Finally, the capacity of AMPs to shape the composition of the skin CoNS community was evaluated by examining the effects of LL-37 on survival of mixed communities of bacteria obtained from human skin (Figure 4G). Skin swab samples were obtained from the forearms of 5 healthy subjects (Table S4), and these mixed bacterial samples were incubated in media without or with a low dose of LL-37 for 4 h.
Individual isolated colonies of CoNS from human skin were grown on mannitol-salt agar with egg yolk (pink color without egg yolk reaction), randomly picked and transferred to individual wells containing TSB (400μL) in a 96-well cluster tube. Each plate also contained wells with a non-antimicrobial strain of S. epidermidis (S. epidermidis 1457) as a negative control, a potent antimicrobial strain of Staphylococcus hominis (A9 strain) as positive control, and blank wells without bacteria. CoNS were cultured at 37°C overnight with shaking. Growth was evaluated by OD600. Bacteria were removed by centrifugation followed by sterile filtration with a 0.22μm membrane. Sterile conditioned media were mixed with fresh TSB at 1:1. The antimicrobial activity released from each CoNS clone was evaluated by culturing 1 × 10^4 CFU of S. aureus (ATCC35556) in 200μL of diluted conditioned media at 30°C for 24 h. […] To determine frequency of antimicrobial CoNS, up to 48 CoNS vvvcolonies were analyzed.

ShA9-WT = assay: Transmission electron microscopy of ShA9-WT; format: cell-based, Staphylococcus hominis; conditions: LL-37 (2 μM), 30°C, 30 min; Figure 5B
[4] = tested on: mixture of S. aureus (ATCC35556), ShA9-WT and ShA9-ΔLanti; assay: Staphylococcus competition assay in vitro; format: cell-based, Staphylococcus aureus, Staphylococcus hominis; conditions: RPMI1640, 1 × 10^6 CFU/mL each strain, 30°C, 3 h, Figure 6B
Description: Three Staphylococcus strains, S. aureus (ATCC35556), ShA9-WT (antibiotic-producing strain) or ShA9-Dlanti mutant (non-antimicrobial strain) were individually cultured in TSB. Bacterial cells were washed with PBS and re-suspended in fresh PBS. For in vitro competition assay, three bacterial strains were suspended in RPMI1640 media (1mL) at 1 × 10^6 CFU/mL each and LL-37 was added at 0, 1, 2, 4, 8, 16μM. Bacterial mixture were incubated at 30°C for 3 h without shaking. […] Proportion of three Staphylococcus strains was determined by CFU counting on mannitol salt agar with egg yolk for total Staphylococcus CFU and on Barid-Parker agar for S. aureus. Relative proportion of Staphylococcus species was determined as following; S. aureus: CFUs on Baird-Parker CFU/CFUs on mannitol salt agar, CoNS: CFUs on mannitol salt agar – CFUs on Baird-Parker. Ratio of ShA9-WT to ShA9-DLanti mutant were measured by analyzing 12 colonies of pink color CoNS colonies without halo on mannitol salt agar from each sample with colony PCR using lantibiotic-specific primers (key resources table).
Survival of S. aureus and CoNS were measured on Baird-Parker agar for S. aureus or mannitol salt agar with egg yolk for total Staphylococcus species using easySpiral automatic diluter plater with exponential mode or circle mode and automatic colony counter (Interscience Inc., France). […]

Substance: LL-37
- Antimicrobial interaction of LL-37 combined with Pep-5 on S. hominis C6 (S. hominis C6 strain): synergy
- Growth of ShA9-ΔLanti with the combination of LL-37 and ShA9 CM containing lantibiotics (ShA9-ΔLanti): synergistically inhibited growth
- Survival of CoNS strains with antibiotic activity on pigskin [1]: inhibited survival
- Survival of CoNS strains without antibiotic activity on pigskin [2]: did not inhibit
- Relative proportion of CoNS with antimicrobial activity in mixed bacterial samples [3]: decreased
- Electron microscopy findings in ShA9-WT after exposure (ShA9-WT): disruption of cytoplasmic membrane integrity and development of a mesosome-like structure within the cytosol
- Shift in relative proportion of the bacterial mixture at lower LL-37 concentrations ([4]; LL-37 1–4 μM): favor growth of S. aureus and ShA9-ΔLanti over the antibiotic-producing ShA9-WT
- Effect on the bacterial mixture at higher LL-37 concentrations ([4]; LL-37 8–16 μM): inhibited both the antibiotic-producing CoNS and S. aureus
